Common to all, as to type: functional, cell-based
The subject of one assay is MDA-MB-231. Description: Cytotoxicity against human MDA-MB-231 cells assessed as growth inhibition after 24 hrs by MTT assay. The conditions noted are these: MDA-MB-231, 24 h.
Another assay concerns A549. Description: Cytotoxicity against human A549 cells assessed as growth inhibition after 24 hrs by MTT assay. The conditions noted are these: A549, 24 h. (Formazan colour is commonly taken as a measure of viable cells.)
A further assay deals with PC-3. Description: Cytotoxicity against human PC3 cells assessed as growth inhibition after 24 hrs by MTT assay. The conditions noted are these: PC-3, 24 h.
The subject of a further assay is COLO 205. Description: Cytotoxicity against human COLO205 cells assessed as growth inhibition after 24 hrs by MTT assay. The conditions noted are these: COLO 205, 24 h.

The term IC50 denotes the concentration needed to halve the response being measured. As for `FC(F)(F)c1ccc(-c2cc(/C=N/c3ccccc3)on2)cc1`, the IC50 in the assay with MDA-MB-231 is 37.4 µM; in the assay with A549, 38.9 µM; in the assay on PC-3, 35.7 µM; with COLO 205, 41.3 µM.

Turning to `Cc1ccc(-c2cc(/C=N/c3ccccc3)on2)cc1`, the 50% inhibitory concentration (IC50) was 29.4 µM with MDA-MB-231, 32 µM in the assay on A549, 31.6 µM in the assay with PC-3 and 28.9 µM in the assay with COLO 205.

Regarding `CCc1cc2ccccc2nc1-c1cc(-c2ccc(C)cc2)no1`, the IC50 in the assay with MDA-MB-231, with A549, in the assay on PC-3 and in the assay with COLO 205 was greater than 100 µM throughout.

Turning to `CCCCCc1cc2ccccc2nc1-c1cc(-c2ccccc2)no1`, the half-inhibitory concentration (IC50) in the assay with MDA-MB-231 is greater than 100 µM; in the assay with A549 it was 92.3 µM; in the assay on PC-3, greater than 100 µM; in the assay with COLO 205, greater than 100 µM.

As to `CCc1cc2ccccc2nc1-c1cc(-c2ccc(F)cc2)no1`, the half-inhibitory concentration (IC50) with MDA-MB-231, in the assay on A549, in the assay on PC-3 and in the assay on COLO 205 was greater than 100 µM throughout.

As to `CCCCc1cc2ccccc2nc1-c1cc(-c2ccccc2)no1`, the half-maximal inhibitory concentration (IC50) with MDA-MB-231, in the assay on A549, in the assay on PC-3 and with COLO 205 was greater than 100 µM in each case.

In the case of `CCCc1cc2ccccc2nc1-c1cc(-c2ccc(C)cc2)no1`, the IC50 in the assay on MDA-MB-231, in the assay on A549, in the assay on PC-3 and in the assay on COLO 205 was greater than 100 µM throughout.

With `CCCCc1cc2ccccc2nc1-c1cc(-c2ccc(F)cc2)no1`, the IC50 in the assay on MDA-MB-231 is 24.2 µM; in the assay on A549 it was 27.5 µM; in the assay with PC-3, 26.3 µM; with COLO 205, 25.3 µM.

On to `CCCc1cc2ccccc2nc1-c1cc(-c2ccc(F)cc2)no1`, for which the IC50 in the assay on MDA-MB-231 is 48.4 µM; in the assay with A549, 51.3 µM; with PC-3 it was 42.2 µM; with COLO 205, 50.3 µM.

As to `CCCCCc1cc2ccccc2nc1-c1cc(-c2ccc(C(F)(F)F)cc2)no1`, the IC50 in the assay on MDA-MB-231 was 22.1 µM; in the assay with A549, 28.3 µM; in the assay with PC-3, 30.2 µM; with COLO 205 it was 24.5 µM.

On to `CCc1cc2ccccc2nc1-c1cc(-c2ccccc2)no1`, for which the half-inhibitory concentration (IC50) in the assay on MDA-MB-231, in the assay on A549, with PC-3 and with COLO 205 was greater than 100 µM each time.

Turning to `CCCc1cc2ccccc2nc1-c1cc(-c2ccccc2)no1`, the IC50 in the assay with MDA-MB-231 amounted to 47.2 µM; in the assay on A549 it was 52.5 µM; in the assay on PC-3 it was 51.3 µM; in the assay with COLO 205, 48.9 µM.

As to `CCCCc1cc2ccccc2nc1-c1cc(-c2ccc(C)cc2)no1`, the half-inhibitory concentration (IC50) with MDA-MB-231, in the assay with A549, with PC-3 and in the assay on COLO 205 was greater than 100 µM in each case.

`CCCCc1cc2ccccc2nc1-c1cc(-c2ccc(C(F)(F)F)cc2)no1`: the IC50 was 10.4 µM in the assay on MDA-MB-231, 9.4 µM in the assay with A549, 10.8 µM in the assay on PC-3 and 11.9 µM in the assay on COLO 205.

For `CCCc1cc2ccccc2nc1-c1cc(-c2ccc(C(F)(F)F)cc2)no1`, the 50% inhibitory concentration (IC50) stood at 36.5 µM in the assay on MDA-MB-231, 43.9 µM with A549, 33.8 µM with PC-3 and 42.2 µM with COLO 205.

Consider `CCc1cc2ccccc2nc1-c1cc(-c2ccc(C(F)(F)F)cc2)no1`, for which the half-maximal inhibitory concentration (IC50) with MDA-MB-231, in the assay with A549, in the assay on PC-3 and in the assay on COLO 205 was greater than 100 µM each time.

As for `C(=N\c1ccccc1)/c1cc(-c2ccccc2)no1`, the 50% inhibitory concentration (IC50) was greater than 100 µM in the assay on MDA-MB-231, 48.1 µM with A549, greater than 100 µM with PC-3 and 89.1 µM in the assay with COLO 205.

Regarding `Fc1ccc(-c2cc(/C=N/c3ccccc3)on2)cc1`, the IC50 in the assay on MDA-MB-231 is 41.2 µM; in the assay on A549, 34.5 µM; in the assay with PC-3, 36.5 µM; with COLO 205 it was 33.1 µM.

`CCCCCc1cc2ccccc2nc1-c1cc(-c2ccc(C)cc2)no1`: the half-inhibitory concentration (IC50) in the assay on MDA-MB-231, in the assay on A549, with PC-3 and in the assay on COLO 205 was greater than 100 µM each time.

Regarding `COc1cccc2c1C(=O)c1c(O)c3c(c(O)c1C2=O)C[C@@](O)(C(=O)CO)C[C@@H]3O[C@H]1C[C@H](N)[C@H](O)[C@H](C)O1` [DOXORUBICIN], the concentration for half-maximal inhibition (IC50) in the assay on MDA-MB-231 was 0.8 µM; in the assay on PC-3 it was 0.6 µM; in the assay on COLO 205, 0.7 µM.
